Laboratory results as given in patent US20230123334A1, “AMINO LIPID COMPOUND, PREPARATION METHOD THEREFOR, AND APPLICATION THEREOF” (SHENZHEN SHENXIN BIOTECHNOLOGY CO., LTD., priority 2020, published 2023).

How the values were obtained:
HEK293 cells [1] = experiment: Preliminary screening as DNA vectors, GFP transfection of HEK293 cells; format: cell-based; conditions: HEK293 cells; lipid/DOPE liposome with 75 ng plasmid DNA (psin-EGFP-IRES-Puro); number of cells expressing GFP divided by total number of nuclei (Hoechst)
Method in brief: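 Lipid + DOPE liposomes (NaOAc, pH 5.6) complexed w/ 75 ng psin-EGFP-IRES-Puro, 30 min RT; added to 3-5×10^4 HEK293/well, 37° C. Hoechst 0.2 μg/mL at 20-24 h, imaged after further 20-24 h. Efficiency = GFP+ cells / total nuclei.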

HEK293 cells [2] = experiment: Preliminary screening as mRNA vectors, EGFP mRNA transfection of HEK293 cells; format: cell-based; conditions: HEK293 cells, 96-well plates, EGFP mRNA 50 ng per well; percentage of GFP fluorescent cells relative to total number of cells (Hoechst)
Method in brief: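 Each well of HEK293 cells received 50 ng of EGFP mRNA. Efficiency was expressed as percent GFP-expressing cells over Hoechst-defined total cell number.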

Structure (SMILES): CCCCCCCCCCCCCCCCCCNc1nc(NCCCCCCCCCCCCCCCC)nc(NCCCN2CCN(C)CC2)n1 [Compound N16N18D9]
- Absolute DNA transfection efficiency in HEK293 cells (HEK293 cells [1]): 0.0%
- Absolute mRNA transfection efficiency in HEK293 cells (HEK293 cells [2]): 0.0%

Structure (SMILES): CCCCCCCCCCCCCCCCCCNc1nc(NCCCCCCCCCCCCCCCC)nc(NCC2CCN(C)CC2)n1 [Compound N16N18D10]
- Absolute DNA transfection efficiency in HEK293 cells (HEK293 cells [1]): 3.0%
- Absolute mRNA transfection efficiency in HEK293 cells (HEK293 cells [2]): 1.8%

Structure (SMILES): CCCCCCCCCCCCCCCCCCNc1nc(NCCCCCCCCCCCCCCCCCC)nc(NCCN(C)C)n1 [Compound N18N18D1]
- Absolute DNA transfection efficiency in HEK293 cells (HEK293 cells [1]): 1.9%
- Absolute mRNA transfection efficiency in HEK293 cells (HEK293 cells [2]): 2.2%

Structure (SMILES): CCCCCCCCCCCCCCCCCCNc1nc(NCCCCCCCCCCCCCCCCCC)nc(NCCN2CCOCC2)n1 [Compound N18N18D2]
- Absolute DNA transfection efficiency in HEK293 cells (HEK293 cells [1]): 0.0%
- Absolute mRNA transfection efficiency in HEK293 cells (HEK293 cells [2]): 0.0%

Structure (SMILES): CCCCCCCCCCCCCCCCCCNc1nc(NCCCCCCCCCCCCCCCCCC)nc(NCCN2CCCC2)n1 [Compound N18N18D3]
- Absolute DNA transfection efficiency in HEK293 cells (HEK293 cells [1]): 2.0%
- Absolute mRNA transfection efficiency in HEK293 cells (HEK293 cells [2]): 40.0%

Structure (SMILES): CCCCCCCCCCCCCCCCCCNc1nc(NCCCCCCCCCCCCCCCCCC)nc(NCCN2CCCCC2)n1 [Compound N18N18D4]
- Absolute DNA transfection efficiency in HEK293 cells (HEK293 cells [1]): 0.9%
- Absolute mRNA transfection efficiency in HEK293 cells (HEK293 cells [2]): 0.0%

Structure (SMILES): CCCCCCCCCCCCCCCCCCNc1nc(NCCCCCCCCCCCCCCCCCC)nc(NCCN2CCN(C)CC2)n1 [Compound N18N18D5]
- Absolute DNA transfection efficiency in HEK293 cells (HEK293 cells [1]): 1.1%
- Absolute mRNA transfection efficiency in HEK293 cells (HEK293 cells [2]): 0.0%

Structure (SMILES): CCCCCCCCCCCCCCCCCCNc1nc(NCCCCCCCCCCCCCCCCCC)nc(NCCCN(C)C)n1 [Compound N18N18D6]
- Absolute DNA transfection efficiency in HEK293 cells (HEK293 cells [1]): 0.3%
- Absolute mRNA transfection efficiency in HEK293 cells (HEK293 cells [2]): 4.4%

Structure (SMILES): CCCCCCCCCCCCCCCCCCNc1nc(NCCCCCCCCCCCCCCCCCC)nc(NCCN(CC)CC)n1 [Compound N18N18D7]
- Absolute DNA transfection efficiency in HEK293 cells (HEK293 cells [1]): 0.3%
- Absolute mRNA transfection efficiency in HEK293 cells (HEK293 cells [2]): 0.0%

Structure (SMILES): CCCCCCCCCCCCCCCCCCNc1nc(NCCCCCCCCCCCCCCCCCC)nc(NCCCN2CCOCC2)n1 [Compound N18N18D8]
- Absolute DNA transfection efficiency in HEK293 cells (HEK293 cells [1]): 0.1%
- Absolute mRNA transfection efficiency in HEK293 cells (HEK293 cells [2]): 0.0%

Structure (SMILES): CCCCCCCCCCCCCCCCCCNc1nc(NCCCCCCCCCCCCCCCCCC)nc(NCCCN2CCN(C)CC2)n1 [Compound N18N18D9]
- Absolute DNA transfection efficiency in HEK293 cells (HEK293 cells [1]): 0.0%
- Absolute mRNA transfection efficiency in HEK293 cells (HEK293 cells [2]): 0.0%

Structure (SMILES): CCCCCCCCCCCCCCCCCCNc1nc(NCCCCCCCCCCCCCCCCCC)nc(NCC2CCN(C)CC2)n1 [Compound N18N18D10]
- Absolute DNA transfection efficiency in HEK293 cells (HEK293 cells [1]): 0.0%
- Absolute mRNA transfection efficiency in HEK293 cells (HEK293 cells [2]): 0.0%

Structure (SMILES): CCCCCCCCCCCCCCSc1nc(NCCN(C)C)nc(SCCCCCCCC)n1 [Compound S8S14D1]
- Absolute DNA transfection efficiency in HEK293 cells (HEK293 cells [1]): 8.3%
- Absolute mRNA transfection efficiency in HEK293 cells (HEK293 cells [2]): 0.7%

Structure (SMILES): CCCCCCCCCCCCCCSc1nc(NCCN2CCOCC2)nc(SCCCCCCCC)n1 [Compound S8S14D2]
- Absolute DNA transfection efficiency in HEK293 cells (HEK293 cells [1]): 18.5%
- Absolute mRNA transfection efficiency in HEK293 cells (HEK293 cells [2]): 0.4%

Structure (SMILES): CCCCCCCCCCCCCCSc1nc(NCCN2CCCC2)nc(SCCCCCCCC)n1 [Compound S8S14D3]
- Absolute DNA transfection efficiency in HEK293 cells (HEK293 cells [1]): 13.9%
- Absolute mRNA transfection efficiency in HEK293 cells (HEK293 cells [2]): 3.4%

Structure (SMILES): CCCCCCCCCCCCCCSc1nc(NCCN2CCCCC2)nc(SCCCCCCCC)n1 [Compound S8S14D4]
- Absolute DNA transfection efficiency in HEK293 cells (HEK293 cells [1]): 9.3%
- Absolute mRNA transfection efficiency in HEK293 cells (HEK293 cells [2]): 3.1%

Structure (SMILES): CCCCCCCCCCCCCCSc1nc(NCCN2CCN(C)CC2)nc(SCCCCCCCC)n1 [Compound S8S14D5]
- Absolute DNA transfection efficiency in HEK293 cells (HEK293 cells [1]): 29.9%
- Absolute mRNA transfection efficiency in HEK293 cells (HEK293 cells [2]): 52.7%

Structure (SMILES): CCCCCCCCCCCCCCSc1nc(NCCCN(C)C)nc(SCCCCCCCC)n1 [Compound S8S14D6]
- Absolute DNA transfection efficiency in HEK293 cells (HEK293 cells [1]): 16.2%
- Absolute mRNA transfection efficiency in HEK293 cells (HEK293 cells [2]): 79.5%

Structure (SMILES): CCCCCCCCCCCCCCSc1nc(NCCN(CC)CC)nc(SCCCCCCCC)n1 [Compound S8S14D7]
- Absolute DNA transfection efficiency in HEK293 cells (HEK293 cells [1]): 7.5%
- Absolute mRNA transfection efficiency in HEK293 cells (HEK293 cells [2]): 1.3%

Structure (SMILES): CCCCCCCCCCCCCCSc1nc(NCCCN2CCOCC2)nc(SCCCCCCCC)n1 [Compound S8S14D8]
- Absolute DNA transfection efficiency in HEK293 cells (HEK293 cells [1]): 17.1%
- Absolute mRNA transfection efficiency in HEK293 cells (HEK293 cells [2]): 3.4%

Structure (SMILES): CCCCCCCCCCCCCCSc1nc(NCCCN2CCN(C)CC2)nc(SCCCCCCCC)n1 [Compound S8S14D9]
- Absolute DNA transfection efficiency in HEK293 cells (HEK293 cells [1]): 16.0%
- Absolute mRNA transfection efficiency in HEK293 cells (HEK293 cells [2]): 13.5%

Structure (SMILES): CCCCCCCCCCCCCCSc1nc(NCC2CCN(C)CC2)nc(SCCCCCCCC)n1 [Compound S8S14D10]
- Absolute DNA transfection efficiency in HEK293 cells (HEK293 cells [1]): 41.1%
- Absolute mRNA transfection efficiency in HEK293 cells (HEK293 cells [2]): 60.5%

Structure (SMILES): CCCCCCCCCCCCCCCSc1nc(NCCN(C)C)nc(SCCCCCCCC)n1 [Compound S8S15D1]
- Absolute DNA transfection efficiency in HEK293 cells (HEK293 cells [1]): 8.1%
- Absolute mRNA transfection efficiency in HEK293 cells (HEK293 cells [2]): 0.4%

Structure (SMILES): CCCCCCCCCCCCCCCSc1nc(NCCN2CCOCC2)nc(SCCCCCCCC)n1 [Compound S8S15D2]
- Absolute DNA transfection efficiency in HEK293 cells (HEK293 cells [1]): 10.8%
- Absolute mRNA transfection efficiency in HEK293 cells (HEK293 cells [2]): 0.0%

Structure (SMILES): CCCCCCCCCCCCCCCSc1nc(NCCN2CCCC2)nc(SCCCCCCCC)n1 [Compound S8S15D3]
- Absolute DNA transfection efficiency in HEK293 cells (HEK293 cells [1]): 21.8%
- Absolute mRNA transfection efficiency in HEK293 cells (HEK293 cells [2]): 0.9%

Structure (SMILES): CCCCCCCCCCCCCCCSc1nc(NCCN2CCCCC2)nc(SCCCCCCCC)n1 [Compound S8S15D4]
- Absolute DNA transfection efficiency in HEK293 cells (HEK293 cells [1]): 11.2%
- Absolute mRNA transfection efficiency in HEK293 cells (HEK293 cells [2]): 2.6%

Structure (SMILES): CCCCCCCCCCCCCCCSc1nc(NCCN2CCN(C)CC2)nc(SCCCCCCCC)n1 [Compound S8S15D5]
- Absolute DNA transfection efficiency in HEK293 cells (HEK293 cells [1]): 31.2%
- Absolute mRNA transfection efficiency in HEK293 cells (HEK293 cells [2]): 40.0%

Structure (SMILES): CCCCCCCCCCCCCCCSc1nc(NCCCN(C)C)nc(SCCCCCCCC)n1 [Compound S8S15D6]
- Absolute DNA transfection efficiency in HEK293 cells (HEK293 cells [1]): 24.5%
- Absolute mRNA transfection efficiency in HEK293 cells (HEK293 cells [2]): 45.0%

Structure (SMILES): CCCCCCCCCCCCCCCSc1nc(NCCN(CC)CC)nc(SCCCCCCCC)n1 [Compound S8S15D7]
- Absolute DNA transfection efficiency in HEK293 cells (HEK293 cells [1]): 13.8%
- Absolute mRNA transfection efficiency in HEK293 cells (HEK293 cells [2]): 0.0%

Structure (SMILES): CCCCCCCCCCCCCCCSc1nc(NCCCN2CCOCC2)nc(SCCCCCCCC)n1 [Compound S8S15D8]
- Absolute DNA transfection efficiency in HEK293 cells (HEK293 cells [1]): 23.0%
- Absolute mRNA transfection efficiency in HEK293 cells (HEK293 cells [2]): 8.0%

Structure (SMILES): CCCCCCCCCCCCCCCSc1nc(NCCCN2CCN(C)CC2)nc(SCCCCCCCC)n1 [Compound S8S15D9]
- Absolute DNA transfection efficiency in HEK293 cells (HEK293 cells [1]): 13.9%
- Absolute mRNA transfection efficiency in HEK293 cells (HEK293 cells [2]): 22.0%

Structure (SMILES): CCCCCCCCCCCCCCCSc1nc(NCC2CCN(C)CC2)nc(SCCCCCCCC)n1 [Compound S8S15D10]
- Absolute DNA transfection efficiency in HEK293 cells (HEK293 cells [1]): 32.1%
- Absolute mRNA transfection efficiency in HEK293 cells (HEK293 cells [2]): 64.0%

Structure (SMILES): CCCCCCCCCCCCCCCCSc1nc(NCCN(C)C)nc(SCCCCCCCC)n1 [Compound S8S16D1]
- Absolute DNA transfection efficiency in HEK293 cells (HEK293 cells [1]): 4.6%
- Absolute mRNA transfection efficiency in HEK293 cells (HEK293 cells [2]): 2.2%

Structure (SMILES): CCCCCCCCCCCCCCCCSc1nc(NCCN2CCOCC2)nc(SCCCCCCCC)n1 [Compound S8S16D2]
- Absolute DNA transfection efficiency in HEK293 cells (HEK293 cells [1]): 15.7%
- Absolute mRNA transfection efficiency in HEK293 cells (HEK293 cells [2]): 0.2%

Structure (SMILES): CCCCCCCCCCCCCCCCSc1nc(NCCN2CCCC2)nc(SCCCCCCCC)n1 [Compound S8S16D3]
- Absolute DNA transfection efficiency in HEK293 cells (HEK293 cells [1]): 20.7%
- Absolute mRNA transfection efficiency in HEK293 cells (HEK293 cells [2]): 37.3%

Structure (SMILES): CCCCCCCCCCCCCCCCSc1nc(NCCN2CCCCC2)nc(SCCCCCCCC)n1 [Compound S8S16D4]
- Absolute DNA transfection efficiency in HEK293 cells (HEK293 cells [1]): 10.2%
- Absolute mRNA transfection efficiency in HEK293 cells (HEK293 cells [2]): 2.1%
